Patent US20210345611A1, “EXTENDED AND CONTINUOUS RELEASE COMPOSITIONS FOR PLANT HEALTH AND METHOD OF USE” (Verdesian Life Sciences U.S., LLC, priority 2018, published 2021)

Assay: PGA stability in 250 mM sodium phosphate aqueous buffers (HPLC)
Assay type: physicochemical
Description: Analytical note: PGA measurements in this section are done on a free acid basis using HPLC techniques, with PGA peak in each analysis checked for purity using UV-Vis spectroscopy technique by comparison with a known standard reference material. Experiments were conducted to determine the relative stability of PGA to degradation in 250 mM sodium phosphate aqueous buffers at pH levels of interest representing pH levels commonly found in soils. PGA is sufficiently stable at the pH levels of interest. PGA/pH 5.75 L-Pyroglutamic acid was dissolved to a concentration of about 1.0% in 250 mM sodium phosphate aqueous buffer at pH of 5.75, and stored for 24 hours at 50 degrees C. […] PGA/pH 6.75 L-Pyroglutamic acid was dissolved to a concentration of about 1.0% in 250 mM sodium phosphate aqueous buffer at pH of 6.75, and stored for 24 hours at 50 degrees C. […] PGA/pH 7.75 L-Pyroglutamic acid was dissolved to a concentration of about 1.0% in 250 mM sodium phosphate aqueous buffer at pH of 7.75, and stored for 24 hours at 50 degrees C.

Measured: decomposition by HPLC analysis

O=C1CC[C@@H](C(=O)O)N1 [L-Pyroglutamic acid]
No detectable decomposition: about 1.0% in 250 mM sodium phosphate buffer pH 5.75, 24 hours at 50 degrees C | about 1.0% in 250 mM sodium phosphate buffer pH 6.75, 24 hours at 50 degrees C | about 1.0% in 250 mM sodium phosphate buffer pH 7.75, 24 hours at 50 degrees C
